According to BindingDB's records for patent US20230365541 (Haisco Pharmaceuticals, 2023):

Target: Histone-lysine N-methyltransferase EZH2 (Homo sapiens, UniProt Q15910)
Experiment: EZH2 Enzyme Activity Assay
Experimental: The compounds were dissolved in DMSO, formulated into 10 mM solutions and serially diluted with DMSO to obtain 100-fold the final concentration. 200 nL of the solutions of the compounds was transferred to a 384-well plate (Perkin Elmer, Cat. No. 6007299) by using Echo550. EZH2 (BPS, Cat. No. 51004) was diluted with 1×assay buffer (50 mM Tris-HCl 9.0, 0.01% Tween-20, 1 mM DTT) to 2-fold the final concentration (EZH2: 3 nM). A mixed solution of H3K27(21-44) and [3H]-SAM (PerkinElmer, Lot. No. 2146246) (H3K27(21-44): 200 nM, [3H]-SAM: 100 nM) was formulated. The EZH2 diluted solution was taken and added to the 384-well plate at 10 μL/well (10 μL of 1×assay buffer was added in the control group). The plate was sealed and then incubated at room temperature for 15 minutes. 10 μL of the mixed solution of H3K27 (21-44) and [3H]-SAM was added to each well. The plate was sealed and then incubated at room temperature for 60 minutes. 50 μM of SAM (Sigma, Cat. No. A7007) was formulated at low temperature and added to the 384-well plate at 10 μL/well. The sample was taken at 25 μL/well, transferred to a flashplate and incubated at room temperature for at least 1 hour. The flashplate was washed 3 times with a plate washing liquid (dH2O+0.1% Tween-20) and read by using Microbeta.

Chain of Histone-lysine N-methyltransferase EZH2 (Q15910 whole entry): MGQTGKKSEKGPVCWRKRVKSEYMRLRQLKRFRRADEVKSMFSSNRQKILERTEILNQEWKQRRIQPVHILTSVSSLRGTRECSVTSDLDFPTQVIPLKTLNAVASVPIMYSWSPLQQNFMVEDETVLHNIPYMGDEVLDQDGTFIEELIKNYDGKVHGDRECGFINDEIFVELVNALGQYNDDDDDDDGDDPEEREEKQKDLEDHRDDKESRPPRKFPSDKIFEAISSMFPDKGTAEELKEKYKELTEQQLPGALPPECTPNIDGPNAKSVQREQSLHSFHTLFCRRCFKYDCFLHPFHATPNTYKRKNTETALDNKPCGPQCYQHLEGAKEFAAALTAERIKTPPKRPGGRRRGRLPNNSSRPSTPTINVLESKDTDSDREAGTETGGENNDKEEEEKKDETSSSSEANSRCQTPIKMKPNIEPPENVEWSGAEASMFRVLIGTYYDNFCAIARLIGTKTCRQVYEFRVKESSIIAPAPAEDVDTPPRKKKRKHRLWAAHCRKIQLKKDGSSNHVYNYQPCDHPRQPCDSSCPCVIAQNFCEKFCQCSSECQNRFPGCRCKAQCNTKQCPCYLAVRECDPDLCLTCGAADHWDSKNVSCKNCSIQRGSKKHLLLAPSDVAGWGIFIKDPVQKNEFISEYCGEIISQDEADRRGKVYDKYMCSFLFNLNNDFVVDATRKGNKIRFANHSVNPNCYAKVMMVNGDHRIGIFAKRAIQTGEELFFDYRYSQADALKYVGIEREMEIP

| IC50 | Compound |
| --- | --- |
| 0.43 nM | CNC(=O)N1CCC(C2(C)Oc3c(Cl)cc(C(=O)NCc4c(SC)cc(C)[nH]c4=O)c(C)c3O2)CC1 (configuration not stated) [US20230365541, Compound 13] |
| 0.48 nM | CSc1cc(C)[nH]c(=O)c1CNC(=O)c1cc(Cl)c2c(c1C)OC(C)(C1CCN(S(C)(=O)=O)CC1)O2 (configuration not stated) [US20230365541, Compound 14] |
